Melting point data for 13 molecules are collected here from patent publication US6809094B2, “Pharmaceutical composition for the treatment of CNS and other disorders” (Pfizer Inc, priority 2000, dated 2004).

Structures can show the parent of a compound that is named as a salt. Bounds are passed on as bounds.

By melting point is commonly meant the temperature of the solid-liquid transition. The molecule `c1ccc2cc3oc(N4CCN5CCC4CC5)nc3cc2c1` registered a melting point above 300 °C. Take `c1ccc2[nH]c(N3CCN4CCC3CC4)nc2c1`: the melting point is above 300 °C. Turning to `Brc1cnc2oc(N3CCN4CCC3CC4)nc2c1`, the melting point is above 300 °C.

`c1ccc(-c2ccc3oc(N4CCN5CCC4CC5)nc3c2)cc1` came in with a melting point above 300 °C.

In turn, `O=[N+]([O-])c1ccc2nc(N3CCN4CCC3CC4)oc2c1` returned a melting point of 296.4 °C. For `O=[N+]([O-])c1cccc2oc(N3CCN4CCC3CC4)nc12`, the melting point was 232.1 °C. In turn, `O=[N+]([O-])c1ccc2oc(N3CCN4CCC3CC4)nc2c1` gave a melting point of 240.2 °C.

Consider `c1cncc(-c2ccc3oc(N4CCN5CCC4CC5)nc3c2)c1`, for which the melting point was above 300 °C. The molecule `O=[N+]([O-])c1cc2nc(N3CCN4CCC3CC4)oc2cc1Cl` displayed a melting point of 242.3 °C.

For the molecule `c1ccc(-c2ccc3nc(N4CCN5CCC4CC5)oc3c2)cc1`, the melting point was 281.3 °C. Turning to `O=[N+]([O-])c1cc2oc(N3CCN4CCC3CC4)nc2cc1Cl` (as salt: hydrochloride), the melting point was above 300 °C. In turn, `c1ccc2c(c1)ccc1oc(N3CCN4CCC3CC4)nc12` came in with a melting point of 167.2 °C.

For the molecule `Ic1ccc2oc(N3CCN4CCC3CC4)nc2c1`, the melting point was above 300 °C.
